For orientation: ED50 means the dose that gives a 50% effect, or the effect in half of the subjects.

This is an account of results in ChEMBL document CHEMBL1126331, “Nor-mefloquine: Stereospecific synthesis and biological properties” (1992).

The test system of one assay is Mus musculus. Kind of assay: Compound was evaluated in vivo against Plasmodium berghei in mice (Mus musculus) after oral administration. The format is functional.
In the next assay the test system is Rattus norvegicus. Kind of assay: Percent decrease in blood pressure in conscious hypertensive rats, at a dose of 100 mg. It is filed as functional.

For the compound `Cl.O[C@H](c1cc(C(F)(F)F)nc2c(C(F)(F)F)cccc12)[C@@H]1CCCN1` (single isomer, unassigned), the median effective dose (ED50) with Mus musculus amounted to 1.8 mg/kg. Moreover, in the assay with Rattus norvegicus, the Decrease was determined as 15%. As for `Cl.O[C@@H](c1cc(C(F)(F)F)nc2c(C(F)(F)F)cccc12)[C@H]1CCCCN1` [MEFLOQUINE HYDROCHLORIDE], in the assay with Mus musculus, it took a dose of 1.8 mg/kg to reach the 50% effect level (ED50).
